Some test systems named below: P. vulgaris; S. faec. D Endococcen; S. aureus E 690 (MethR); Staph. epidermidis 178; S. aureus 3066 (MethR); E. coli 9632; S. aureus (MethR); Staph. haemolyticus 712; S. faec. D 21777; S. epi. 825; Ps. aeruginosa; S. faecium D-59; S. aureus 209 P; S. faecium D-65.
Assay in all cases: MIC, antibacterial activity
Common to all, as to format: cell-based

Assay [1] concerns Streptococcus faecalis ATCC 29212.
Assay [2] deals with S. epi. 823 (Teicoplanin R).
Assay [3] has as its system S. haemo. 809 (Teicoplanin R).

Structures can show the parent of a compound that is named as a salt.

Usually MIC stands for the lowest concentration found to suppress growth. For the compound `CNC(CC(C)C)C(=O)NC1C(=O)NC(CC(N)=O)C(=O)NC2C(=O)NC3C(=O)NC(C(=O)NC(C(=O)O)c4cc(O)cc(O)c4-c4cc3ccc4O)C(OC3C[C@](C)(N)C(=O)C(C)O3)c3ccc(c(Cl)c3)Oc3cc2cc(c3OC2O[C@H](CO)C(O)[C@H](O)C2O)Oc2ccc(cc2Cl)C1O` (some centres unmarked) [Balhimycin trifluoroacetate, Balhimycin], the MIC is above 100 µg/mL in the assay on P. vulgaris; 0.78 µg/mL in the assay on S. faec. D Endococcen; 0.39 µg/mL against S. aureus E 690 (MethR); 1.56 µg/mL in the assay on Staph. epidermidis 178; 1.56 µg/mL in assay [1]; 0.78 µg/mL in the assay on S. aureus 3066 (MethR). Further, the MIC in the assay on E. coli 9632 is above 100 µg/mL; with S. aureus (MethR), 0.39 µg/mL; in the assay with Staph. haemolyticus 712 it was 1.56 µg/mL; in [2] it was 12.5 µg/mL; against S. faec. D 21777 it was 0.78 µg/mL; with S. epi. 825, 3.12 µg/mL. For the same compound, the MIC is above 100 µg/mL with Ps. aeruginosa; 1.56 µg/mL against S. faecium D-59; 0.39 µg/mL against S. aureus 209 P; 0.78 µg/mL with S. faecium D-65; 6.25 µg/mL in assay [3].

For the origin of these results see patent publication EP0468504B1, “A novel antibiotic, balhimycin, a process for its production and its use as pharmaceutical” (HOECHST AKTIENGESELLSCHAFT, priority 1990, dated 1992).
